In data set [1] the test system is Culex pipiens molestus. Description: Test Example 10: efficacy test against Culex pipiens molestus. The format is in vivo. The note with it: 24 h, 20 first-instar larvae in 100 mL, after one day, read-out: mortality rate against first-instar larvae of Culex pipiens molestus (converted). The procedure: (§1) 5 parts of the compound of the present invention, 93.6 parts of dimethylformamide and 1.4 parts of polyoxyethylene alkyl aryl ether were mixed and dissolved to prepare Emulsion (1) including 5% of an active ingredient.
(§2) An insect mortality rate and a controlling rate were calculated by the numerical equations shown below. Insect mortality rate (%)=(Number of dead insects)/(Number of sample insects)×100 Controlling rate={1−(Nt)/(Nc)}×100
Emulsion (1) was diluted with water so that the concentration of the compound of the present invention was 10 ppm, to prepare a chemical liquid for testing. 20 first-instar larvae of Culex pipiens molestus were released in 100 mL of the chemical liquid. After one day, the number of dead insects was counted, and the insect mortality rate was calculated. The test was performed twice.

In data set [2] the test system is Plutella xylostella. The data set can be described thus: Test Example 3: efficacy test against Plutella xylostella (cabbage leaf soak). The format is in vivo. The settings on record: 72 h, cabbage leaves soaked 30 seconds, second-instar larvae, 3 days after inoculation, read-out: mortality rate against Plutella xylostella. The protocol: as §1, §2
Emulsion (1) was diluted with water so that the concentration of the compound of the present invention was 125 ppm. Cabbage leaves were soaked in the diluted liquid for 30 seconds. Subsequently, the cabbage leaves were put on Petri dishes, followed by inoculating 5 second-instar larvae of Plutella xylostella. The Petri dishes were placed in a thermostatic chamber at a temperature of 25° C. and humidity of 60%. Mortality was investigated 3 days after inoculation, and the insect mortality rate was calculated. The test was performed twice.

Data set [3] concerns Aphis craccivora. The data set can be described thus: Test Example 4: efficacy test against Aphis craccivora (spray on black-eyed pea plants). The settings on record: in Vigna unguiculata, 96 h, sprayed on black-eyed pea plants with nymphs, 4 days after spraying, read-out: mortality rate against Aphis craccivora. The format is in vivo. The protocol:
as §1, §2
Black-eyed pea plants were raised in No. 3 pots and the primary leaves were inoculated with nymphs of Aphis craccivora. Emulsion (1) was diluted with water so that the concentration of the compound of the present invention was 125 ppm. Subsequently, the aforementioned diluted liquid was sprayed on the black-eyed pea plants on which the nymphs of Aphis craccivora were parasitic. The aforementioned black-eyed pea plants were then placed in a thermostatic chamber with a temperature of 25° C. and humidity of 60%. Mortality was investigated 4 days after spraying was carried out, and the insect mortality rate of Aphis craccivora was calculated. The test was performed twice.

The test system of data set [4] is Phyllotreta striolata. The data set can be described thus: Test Examples 7 and 14: efficacy test against Phyllotreta striolata (spray on bok-choi seedlings). The format is in vivo. The settings on record: 168 h, sprayed on bok-choi seedlings, adults, 7 days after inoculation, read-out: mortality rate against adult Phyllotreta striolata. The protocol: as §1, §2
(§3) Emulsion (1) was diluted with water so that the concentration of the compound of the present invention was 125 ppm, to prepare a diluted liquid for testing. The aforementioned diluted liquid was sprayed on bok-choi seedlings (7th major leaf-development period) planted in No. 3 pots. After the bok-choi seedlings were subjected to air-drying, the seedlings were placed in plastic cups, followed by inoculating 10 adult Phyllotreta striolata. The plastic cups were stored in a thermostatic chamber at a temperature of 25° C. and humidity of 65%. Mortality was investigated 7 days after inoculation, and the insect mortality rate was calculated. The test was performed twice.
as §3, with “8” for “125”

Data set [5] relates to Nilaparvata lugens. The data set can be described thus: Test Examples 6 and 13: efficacy test against Nilaparvata lugens (rice seedling soak). The format is in vivo. The settings on record: 168 h, rice seedlings soaked 30 seconds, second-instar larvae, 7 days after inoculation, read-out: mortality rate against Nilaparvata lugens. The protocol: as §1, §2
Emulsion (1) was diluted with water so that the concentration of the compound of the present invention was 125 ppm. Rice seedlings were soaked in the diluted liquid for 30 seconds, and subjected to air-drying. Subsequently, the rice seedlings were placed in plastic cases, followed by inoculating 5 second-instar larvae of Nilaparvata lugens. The plastic cases were placed in a thermostatic chamber at a temperature of 25° C. and humidity of 65%. Mortality was investigated 7 days after inoculation, and the insect mortality rate was calculated. The test was performed twice.
Emulsion (1) was diluted with water so that the concentration of the compound of the present invention was 8 ppm. Rice seedlings were soaked in the diluted liquid for 30 seconds, and subjected to air-drying. Subsequently, the rice seedlings were placed in plastic cases, followed by inoculating 5 second-instar larvae of Nilaparvata lugens. The plastic cases were placed in a thermostatic chamber at a temperature of 25° C. and humidity of 65%. Mortality was investigated 7 days after inoculation, and the insect mortality rate was calculated. The test was performed twice.

`CCS(=O)(=O)c1cc(C(F)(F)F)ccc1-c1nc(Br)c(-n2cc(I)cn2)n1C` [b-1]: the melting point was 202 to 204 °C.

As to `CCS(=O)(=O)c1cnc(-n2cncn2)nc1-c1ncc(-c2ccc(OC(F)(F)F)cc2)n1C` [Compound No. 3, 5-(ethylsulfonyl)-4-(1-methyl-5-(4-(trifluoromethoxy)phenyl)-1H-imidazol-2-yl)-2-(1H-1,2,4-triazol-1-yl)pyrimidine], the mortality at 10 ppm in data set [1] was 100%.

On to `CCS(=O)(=O)c1ccc(-n2cnc(C)n2)nc1-c1ncc(-c2ccc(OC(F)(F)F)cc2)n1C` [Compound No. a-8, 3-(ethylsulfonyl)-6-(3-methyl-1H-1,2,4-triazol-1-yl)-2-(1-methyl-5-(4-(trifluoromethoxy)phenyl)-1H-imidazol-2-yl)pyridine], for which the mortality at 10 ppm in data set [1] is 100%. In addition, the mortality at 125 ppm in data set [2], in data set [3], in data set [4] and in data set [5] was not below 80% each time.

As to `CCS(=O)(=O)c1cnc(-c2ncccn2)nc1-c1ncc(-c2ccc(OC(F)(F)F)cc2)n1C` [Compound No. 7, 5-(ethylsulfonyl)-4-(1-methyl-5-(4-(trifluoromethoxy)phenyl)-1H-imidazol-2-yl)-2,2′-bipyrimidine], the mortality at 125 ppm in data set [2], in data set [3], in data set [4] and in data set [5] was not below 80% each time. Besides, the mortality at 8 ppm in data set [4] (8 ppm) and in data set [5] (8 ppm) was not below 80% each time.

Regarding `CCS(=O)(=O)c1cc(C(F)(F)F)ccc1-c1nc(Br)c(-n2cc(C(F)(F)F)cn2)n1C` [b-2], the melting point was in the range of 176 to 178 °C.

`CCSc1cnc(-n2cncn2)nc1-c1ncc(-c2ccc(OC(F)(F)F)cc2)n1C` [compound 2, 5-(ethylthio)-4-(1-methyl-5-(4-(trifluoromethoxy)phenyl)-1H-imidazol-2-yl)-2-(1H-1,2,4-triazol-1-yl)pyrimidine]: the mortality at 10 ppm in data set [1] is 100%.

The melting point is the temperature of the solid-liquid transition. Broadly, the mortality is the share of the test organisms that died.

For the origin of these results see patent publication US11180485B2, “Diaryl-azole compound and formulation for controlling harmful organism” (Nippon Soda Co., Ltd., priority 2016, dated 2021).
